The text below walks through data of PubChem BioAssay (NCI).

Some test systems named below: MOLT-4 leukemia; XF 498 CNS; M19-MEL melanoma; HCC-2998 colon; DLD-1 colon; DMS 114 small cell lung; SNB-78 CNS; NCI-H226 lung; NCI-H23 lung; DMS 273 small cell lung; UACC-62 melanoma; HS 578T breast; T-47D breast.
What all share (experiment): NCI anticancer screen, dose series, 48 h

Molecules are shown by their SMILES.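 These data come from cells grown in 96-well plates and exposed to compound for 48 hours at five concentrations. GI50 = concentration required for 50% inhibition of growth. TGI: total growth inhibition.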

Consider `CC1=C(C(=O)Nc2ccccc2C)C(c2ccccc2C)C(C(=O)Nc2ccccc2C)=C(C)N1`, for which the TGI in the assay with MOLT-4 leukemia was over 10 µM; in the assay on XF 498 CNS, 39.2 µM; in the assay with M19-MEL melanoma, 66.7 µM; in the assay with HCC-2998 colon, 36.4 µM; in the assay on DLD-1 colon, 33.4 µM; in the assay on DMS 114 small cell lung it was over 100 µM. The results for the TGI in the assay with SNB-78 CNS, with NCI-H226 lung and in the assay with NCI-H23 lung were over 100 µM, 46.9 µM and 68.4 µM, respectively.

As to `COC(=O)C1C(/C=C/c2ccoc2)ON2CCC[C@@H]12` (stereo partly drawn), the TGI in the assay on M19-MEL melanoma, in the assay on HCC-2998 colon, with DLD-1 colon, in the assay with DMS 273 small cell lung, in the assay with DMS 114 small cell lung and in the assay on SNB-78 CNS was over 100 µM throughout. Also, the TGI with NCI-H226 lung and in the assay on NCI-H23 lung was over 100 µM each time.

Turning to `O=c1[nH]cnc2c1ncn2CCCCO`, the TGI with MOLT-4 leukemia, in the assay with M19-MEL melanoma, in the assay with HCC-2998 colon, in the assay on DLD-1 colon, in the assay on DMS 114 small cell lung and in the assay on UACC-62 melanoma was over 100 µM in each case. Also, the TGI in the assay with SNB-78 CNS, in the assay with NCI-H226 lung and in the assay on NCI-H23 lung was over 100 µM throughout.

Turning to `CCOC(=O)/C=C1\Oc2ccccc2C1(C)O` (stereo not drawn), the TGI in the assay with MOLT-4 leukemia, in the assay on M19-MEL melanoma, in the assay with HCC-2998 colon, with DLD-1 colon, in the assay with DMS 273 small cell lung and with DMS 114 small cell lung was over 100 µM each time. For the same compound, the TGI in the assay with UACC-62 melanoma, in the assay with SNB-78 CNS, in the assay on NCI-H226 lung and with NCI-H23 lung was over 100 µM in each case.

Consider `NNC(=S)N/N=C(/C(=O)Nc1ccc([N+](=O)[O-])cc1)c1nc2ccc([N+](=O)[O-])cc2[nH]c1=O`, for which the TGI with MOLT-4 leukemia, in the assay with XF 498 CNS, with M19-MEL melanoma, in the assay on HCC-2998 colon, in the assay on DLD-1 colon and with DMS 114 small cell lung was over 100 µM each time. Besides, the TGI in the assay on UACC-62 melanoma, with SNB-78 CNS, in the assay on NCI-H226 lung and with NCI-H23 lung was over 100 µM each time.

Consider `O=C(O)c1cc(=O)c2cc(C(=O)c3cccs3)c(Cl)c(Cl)c2o1`, for which the TGI in the assay with MOLT-4 leukemia, with HCC-2998 colon, with DLD-1 colon, in the assay with UACC-62 melanoma, in the assay with SNB-78 CNS and in the assay on NCI-H226 lung was over 100 µM throughout. Also, in the assay with NCI-H23 lung, the TGI was over 100 µM.

Regarding `CCSC(=O)C1(C)OC2CCCCC2C1=O` (stereo not drawn), the TGI with MOLT-4 leukemia, with M19-MEL melanoma, in the assay on HCC-2998 colon, with DLD-1 colon, in the assay with DMS 273 small cell lung and in the assay with DMS 114 small cell lung was over 100 µM in each case. Also, the TGI with UACC-62 melanoma, in the assay with SNB-78 CNS and in the assay with NCI-H226 lung was over 100 µM each time.

For `OC1c2ccccc2C2C(O)c3ccccc3C12` (stereo not drawn), the TGI in the assay with MOLT-4 leukemia, with M19-MEL melanoma, with HCC-2998 colon, in the assay with DLD-1 colon, in the assay with DMS 273 small cell lung and with DMS 114 small cell lung was over 100 µM in each case. In addition, the TGI with UACC-62 melanoma and in the assay with NCI-H23 lung was over 100 µM each time.

Consider `COC(=O)c1nc(N)nc(C(=O)OC)c1C(=O)c1ccccc1`, for which the TGI in the assay with MOLT-4 leukemia, with XF 498 CNS, in the assay with M19-MEL melanoma, in the assay on HCC-2998 colon, with DLD-1 colon and in the assay with DMS 114 small cell lung was over 100 µM in each case. Besides, the TGI in the assay with UACC-62 melanoma and in the assay on NCI-H23 lung was over 100 µM in each case.

`Nc1ccc(C2=Nc3ccccc3SC(c3ccccc3O)C2)cc1` (stereo not drawn): the TGI with MOLT-4 leukemia is 58.5 µM; in the assay on XF 498 CNS, 78.5 µM; with M19-MEL melanoma, over 100 µM; in the assay on HCC-2998 colon, over 100 µM; in the assay on DLD-1 colon, over 100 µM; in the assay with DMS 273 small cell lung, over 100 µM. Besides, the TGI in the assay on DMS 114 small cell lung is 49.4 µM; with UACC-62 melanoma, over 100 µM; in the assay with NCI-H226 lung, over 100 µM; with NCI-H23 lung, over 100 µM.

`O=c1[nH]c2c(c3ccccc13)CCc1ccccc1-2`: the TGI in the assay with MOLT-4 leukemia, in the assay on M19-MEL melanoma, in the assay on HCC-2998 colon, in the assay on DMS 273 small cell lung, in the assay with DMS 114 small cell lung and in the assay with SNB-78 CNS was over 100 µM throughout. In addition, the TGI in the assay with NCI-H226 lung and in the assay with NCI-H23 lung was over 100 µM throughout.

As for `COc1cc(/C=C\c2ccc(Cl)cc2)cc(OC)c1OC`, the TGI in the assay with MOLT-4 leukemia was 6.87 µM; in the assay on XF 498 CNS it was 19.1 µM; with M19-MEL melanoma, over 100 µM; in the assay on HCC-2998 colon, 32.7 µM; with DLD-1 colon it was over 100 µM; in the assay with DMS 273 small cell lung, 19.4 µM. Besides, the TGI in the assay on DMS 114 small cell lung was over 91.8 µM; with UACC-62 melanoma, over 100 µM; in the assay with NCI-H226 lung, 6.84 µM; in the assay on NCI-H23 lung, 1.12 µM.

As for `COC(=O)Nc1nc2ccc(S(=O)(=O)c3ccc(NC(=O)Nc4cc(C(F)(F)F)ccc4F)cc3)cc2[nH]1`, the GI50 with MOLT-4 leukemia, in the assay on HCC-2998 colon, in the assay on HS 578T breast, in the assay with T-47D breast, with UACC-62 melanoma and in the assay on NCI-H226 lung was over 25 µM each time. Further, the GI50 in the assay with NCI-H23 lung is over 25 µM. The TGI with MOLT-4 leukemia, in the assay on HCC-2998 colon, in the assay on HS 578T breast, in the assay with T-47D breast, in the assay on UACC-62 melanoma and in the assay on NCI-H226 lung was over 25 µM each time. Also, in the assay with NCI-H23 lung, the TGI is over 25 µM.

Regarding `CN(C)c1ncnc2c1ccn2C1OC(CO)C(O)C1O` (stereo not drawn), the GI50 in the assay on MOLT-4 leukemia is 0.278 µM; with HCC-2998 colon, 1.89 µM; in the assay with HS 578T breast, 2.71 µM; with T-47D breast, 0.0621 µM; in the assay with UACC-62 melanoma it was over 100 µM; in the assay with NCI-H226 lung, over 100 µM. Further, the GI50 with NCI-H23 lung was 5.45 µM. The TGI was 1.95 µM in the assay on MOLT-4 leukemia; 18.1 µM in the assay on HCC-2998 colon; 40.2 µM in the assay on HS 578T breast; 1.61 µM with T-47D breast; over 100 µM with UACC-62 melanoma; over 100 µM with NCI-H226 lung. Besides, in the assay with NCI-H23 lung, the TGI is over 100 µM.

For the compound `O=c1[nH]nc(-c2ccccc2)c2c(-c3ccccc3)onc12`, the GI50 in the assay on MOLT-4 leukemia is 0.564 µM; in the assay on HCC-2998 colon, 39.7 µM; in the assay with HS 578T breast it was 0.255 µM; with T-47D breast, 0.595 µM; in the assay on UACC-62 melanoma, 0.43 µM; with NCI-H226 lung, over 21 µM. The GI50 in the assay on NCI-H23 lung is 4.83 µM. The TGI was over 65.3 µM in the assay with MOLT-4 leukemia; over 96.3 µM in the assay on HCC-2998 colon; 1.37 µM with HS 578T breast; over 46 µM in the assay on T-47D breast; over 100 µM in the assay on UACC-62 melanoma; over 100 µM with NCI-H226 lung. Besides, in the assay with NCI-H23 lung, the TGI was over 100 µM.

For `NC(=O)N/N=C(\CCC(=O)N(Cc1ccccc1)Cc1ccccc1)CC(=O)c1ccc(F)cc1`, the TGI in the assay with MOLT-4 leukemia, in the assay on M19-MEL melanoma, in the assay with HCC-2998 colon, in the assay with DLD-1 colon, in the assay on DMS 114 small cell lung and with UACC-62 melanoma was over 100 µM each time. Also, the TGI with SNB-78 CNS, in the assay on NCI-H226 lung and in the assay on NCI-H23 lung was over 100 µM throughout.

Regarding `N#CC(C(=O)CCC(=O)Nc1ccc(Cl)c(Cl)c1)c1ccc(Cl)cc1` (stereo not drawn), the TGI in the assay on MOLT-4 leukemia, in the assay on M19-MEL melanoma, in the assay with HCC-2998 colon, in the assay with DLD-1 colon, in the assay with DMS 273 small cell lung and with DMS 114 small cell lung was over 100 µM throughout. Further, the TGI in the assay with UACC-62 melanoma, with SNB-78 CNS, in the assay on NCI-H226 lung and with NCI-H23 lung was over 100 µM throughout.

On to `NS(=O)(=O)c1ccc(N2N=C(c3cccs3)CC2c2ccccc2O)cc1` (stereo not drawn), for which the GI50 in the assay with MOLT-4 leukemia is 1.27 µM; with HCC-2998 colon, 1.33 µM; in the assay on HS 578T breast, 0.845 µM; in the assay on T-47D breast, 2.24 µM; in the assay on UACC-62 melanoma it was 1.15 µM; in the assay with NCI-H226 lung, 3.4 µM. The GI50 in the assay on NCI-H23 lung is 1.3 µM. For the same compound, the TGI in the assay on MOLT-4 leukemia turned out to be 16.9 µM; with HCC-2998 colon, 5.12 µM; with HS 578T breast, 2.7 µM; in the assay on T-47D breast it was 18.8 µM; with UACC-62 melanoma, 5.09 µM; in the assay on NCI-H226 lung, 17.4 µM. For the same compound, the TGI in the assay on NCI-H23 lung was 8.47 µM.

With `CCOC(=O)c1cn(CC)c2cc3c(cc2c1=O)SCS3`, the TGI in the assay with MOLT-4 leukemia, with M19-MEL melanoma, with HCC-2998 colon, in the assay with DLD-1 colon, in the assay with DMS 273 small cell lung and with DMS 114 small cell lung was over 100 µM in each case. Besides, the TGI in the assay with UACC-62 melanoma and in the assay on NCI-H23 lung was over 100 µM in each case.

Turning to `CC(=O)O[C@H]1CC[C@@]2(C)C(=C/C(=N\[N+](=O)[O-])[C@H]3C4CCC([C@H](C)CCCC(C)C)[C@@]4(C)CCC32)C1` (stereo partly drawn), the TGI with MOLT-4 leukemia, in the assay on XF 498 CNS, in the assay with M19-MEL melanoma, with DLD-1 colon, in the assay with DMS 273 small cell lung and in the assay on DMS 114 small cell lung was over 100 µM in each case. Further, the TGI with UACC-62 melanoma, in the assay with NCI-H226 lung and with NCI-H23 lung was over 100 µM throughout.
